# Data: patent US20070232577A1, “Synthetic pentacyclic triterpenoids and derivatives of betulinic acid and betulin” (Advanced Life Sciences, Inc., priority 2006, published 2007)
# Experiments:
# [1] = tested on: OVCAR-3 (ovarian carcinoma); experiment: MTS cell viability assay, OVCAR-3; assay type: cell-based; settings: Homo sapiens, 72 h
# Procedure: (§1) All treatments were performed in triplicate. […] Cells were incubated at 37° C. for 72 h.
# HT-29 (colon carcinoma) = experiment: MTS cell viability assay, HT-29; assay type: cell-based; settings: Homo sapiens, 72 h
# Procedure: as §1
# A-375 (melanoma) = experiment: MTS cell viability assay, A-375; assay type: cell-based; settings: Homo sapiens, 72 h
# Procedure: as §1
# MCF-7 (breast carcinoma) = experiment: MTS cell viability assay, MCF-7; assay type: cell-based; settings: Homo sapiens, MCF7, 72 h
# Procedure: as §1
# Daoy (glioblastoma) = experiment: MTS cell viability assay, Daoy; settings: for IC50: Homo sapiens, Daoy, 72 h, read-out: IC50 Daoy
# Procedure: (§2) Cells were plated, the evening before treatment, for each treatment on 96-well plates (1×10^4 cells/well) in 100 μL volume per well. Drug solutions were prepared by diluting each test compound in DSMO (10 mM) with the appropriate cell growth media for each individual cell line, or in “Universal Media” if several cell lines were to be assayed in parallel, immediately prior to cell treatment. Universal Media consisted of 5 mL sodium pyruvate (100×liquid stock, CellGro), 5 mL glucose (100×, 45% liquid stock, CellGro), 5 mL Penicillin/Streptomycin (100×liquid stock, CellGro), 10 mL sodium bicarbonate (50×liquid stock, CellGro), 25 mL Fetal Calf Serum, 1.25 mL insulin (4 mg/mL, Gibco) and 449 mL RPMI media with 2 mM glutamine for a total volume of 500 mL. Cells were treated by aspirating media from each well and adding 80 μL of each drug solution to the attached cells. All treatments were performed in triplicate. Growth media (80 μL) were added to 3 blank wells (no cells) to measure background from the growth media Growth media alone (no DMSO or test compond) was added to 2 wells containing cells to measure the baseline MTS activity and vehicle (DMSO) control solutions were also included to monitor basal toxicity from DMSO. Cells were incubated at 37° C. for 72 h. MTS reagent (per 96-well plate) were prepared by combining 2 mL of MTS working solution (Cell Titer AQueous Non-Radioactive Cell Proliferation Assay, Promega, cat#G1112), 100 μL of 0.92 mg/mL phenazine methosulfate/Dulbecco's PBS and 2.1 mL growth media. MTS reagent (40 μL) were added to each well and incubated at 37° C. for 1.5 to 4 h. Plates were gently shaken by hand until solution in each well appeared homogenous. Absorbances at 490 nm were measured on a plate reader at multiple time points following the addition of MTS reagent for each plate. Triplicate absorbance (490 nm) measurements were averaged following background (no cell) subtraction for each drug concentration. Percent Cell Viability was calculated for each drug concentration using the following equation: {[Absorbances(drug treated)]/[Absorbances(DMSO treated)]}×100%
# (§3) Percent viability (y-axis) was plotted against drug concentration (x-axis) and the resulting graph was used to determine the 50% inhibitory concentration (IC50) for each drug.
# SK-MEL-2 (melanoma) = experiment: MTS cell viability assay, SK-MEL-2; settings: Homo sapiens, SK-MEL-2, 72 h, read-out: IC50 SK-MEL-2
# Procedure: as §2, §3
# LN-229 (glioblastoma) = experiment: MTS cell viability assay, LN-229; assay type: cell-based; settings: Homo sapiens, 72 h
# Procedure: as §1
SMILES,IC50 [1] [µg/mL],IC50 (HT-29 (colon carcinoma)) [µg/mL],IC50 (A-375 (melanoma)) [µg/mL],IC50 (MCF-7 (breast carcinoma)) [µg/mL],IC50 (Daoy (glioblastoma)) [µg/mL],IC50 (SK-MEL-2 (melanoma)) [µg/mL],IC50 (LN-229 (glioblastoma)) [µg/mL],"selectivity of cytotoxicity for Daoy (in words) (Daoy (glioblastoma); MTS assay, Daoy versus other cell lines)"
"CC(C)[C@@H]1CC[C@]2(CO)CC[C@]3(C)[C@H](CC[C@@H]4[C@@]5(C)C=C(C#N)C(=O)C(C)(C)[C@@H]5CC[C@]43C)[C@@H]12 [Compound 55, (1S,3aS,5aR,5bR,7aR,11aR,11bR,13aR,13bR)-3a-(hydroxymethyl)-1-isopropyl-5a,5b,8,8,11a-pentamethyl-9-oxo-2,3,3a,4,5,5a,5b,6,7,7a,8,9,11a,11b,12,13,13a,13b-octadecahydro-1H-cyclopenta[a]chrysene-10-carbonitrile]",8,7,4,> 75,,,,
"C=C(C)[C@@H]1CC[C@]2(COC(=O)COC)CC[C@]3(C)[C@H](CC[C@@H]4[C@@]5(C)CC[C@H](OC(C)=O)C(C)(C)[C@@H]5CC[C@]43C)[C@@H]12 [Compound 19, ((1R,3aS,5aR,5bR,7aR,9S,11aR,11bR,13aR,13b R)-9-acetoxy-5a,5b,8,8,11a-pentamethyl-1-(prop-1-en-2-yl)icosahydro-1H-cyclopenta[a]chrysen-3a-yl)methyl 2-methoxyacetate]",> 75,> 75,7,> 75,7,6,> 75,
"CC(C)[C@@H]1CC[C@]2(CO)CC[C@]3(C)[C@H](CC[C@@H]4[C@@]5(C)Cc6cnoc6C(C)(C)[C@@H]5CC[C@]43C)[C@@H]12 [Compound 49, [(1S,3aS,5aR,5bR,7aR,12aR,12bR,14aR,14bR)-1-isopropyl-5a,5b,8,8,12a-pentamethyl-1,2,3,4,5,5a,5b,6,7,7a,8,12,12a,12b,13,14,14a, 14b-octadecahydro-3aH-cyclopenta[7,8]chryseno[3,2-d]isoxazol-3a-yl]methanol]",50 to 75,50 to 75,10,> 75,4,6,> 75,
"C=C(C)[C@@H]1CC[C@]2(C(=O)O)CC[C@]3(C)[C@H](CC[C@@H]4[C@@]5(C)CCC(NCCO)C(C)(C)[C@@H]5CC[C@]43C)[C@@H]12 (stereo partly drawn) [Compound 77, (1R,3aS,5aR,5bR,7aR,11aR,11bR,13aR,13bR)-9-(2-hydroxyethylamino)-5a,5b,8,8,11a-pentamethyl-1-(prop-1-en-2-yl)icosahydro-1H-cyclopenta[a]chrysene-3a-carboxylic acid]",28,16,14,35,< 2,36,,
"C=C(C)[C@@H]1CC[C@]2(C(=O)O)CC[C@]3(C)[C@H](CC[C@@H]4[C@@]5(C)CC[C@H](O)C(C)(C)[C@@H]5CC[C@]43C)[C@@H]12 [Compound 1, (1R,3aS,5aR,5bR,7aR,9S,11aR, 11bR,13aR,13bR)-9-hydroxy-5a,5b,8,8,11a-pentamethyl-1-(prop-1-en-2-yl)icosahydro-1H-cyclopenta[a]chrysene-3a-carboxylic acid, reference compound]",59 ± 4.58,37,51,50,31.3 ± 2.28,33.2 ± 3.77,61,
"CC(C)[C@@H]1CC[C@]2(COC(=O)CBr)CC[C@]3(C)[C@H](CC[C@@H]4[C@@]5(C)Cc6cnoc6C(C)(C)[C@@H]5CC[C@]43C)[C@@H]12 [Compound 50, [(1S,3aS,5aR,5bR,7aR,12aR,12bR,14aR,14bR)-1-isopropyl-5a,5b,8,8,12a-pentamethyl-1,2,3,4,5,5a,5b,6,7,7a,8,12,12a,12b,13,14,14a, 14b-octadecahydro-3aH-cyclopenta[7,8]chryseno[3,2-d]isoxazol-3a-yl]methyl bromoacetate]",42,40,25,50,4,> 75,48,
"C=C(C)[C@@H]1CC[C@]2(CNCCCl)CC[C@]3(C)[C@H](CC[C@@H]4[C@@]5(C)CC[C@H](O)C(C)(C)[C@@H]5CC[C@]43C)[C@@H]12 [Compound 70, (1R,3aS,5aR,5bR,7aR,9S,11aR,11bR,13aR,13bR)-3a-((2-chloroethylamino)methyl)-5a,5b,8,8,11a-pentamethyl-1-(prop-1-en-2-yl)icosahydro-1H-cyclopenta[a]chrysen-9-ol]",10,19,20,54,< 2,35,,
"CC(C)[C@@H]1CC[C@]2(C(=O)O)CC[C@]3(C)[C@H](CC[C@@H]4[C@@]5(C)CCC(=O)C(C)(C)[C@@H]5CC[C@]43C)[C@@H]12 [Compound 87, (1S,3aS,5aR,5bR,7aR,11aR,11bR,13aR,13bR)-1-isopropyl-5a,5b,8,8,11a-pentamethyl-9-oxoicosahydro-1H-cyclopenta[a]chrysene-3a-carboxylic acid]",22,35,22,38,5,16,28,
"C=C(C)[C@@H]1CC[C@]2(COC(=O)CBr)CC[C@]3(C)[C@H](CC[C@@H]4[C@@]5(C)CCC(=O)C(C)(C)[C@@H]5CC[C@]43C)[C@@H]12 [Compound 18, ((1R,3aS,5aR,5bR,7aR,11aR,11bR,13aR,13bR)-5a,5b,8,8,11a-pentamethyl-9-oxo-1-(prop-1-en-2-yl)icosahydro-1H-cyclopenta[a]chrysen-3a-yl)methyl 2-bromoacetate]",8,36,14,48,< 2,42,,
"C=C(C)[C@@H]1CC[C@]2(COC(=O)COCC)CC[C@]3(C)[C@H](CC[C@@H]4[C@@]5(C)C=C(C#N)C(=O)C(C)(C)[C@@H]5CC[C@]43C)[C@@H]12 [Compound 40, ((1R,3aS,5aR,5bR,7aR,11aR,11bR,13aR,13bR)-10-cyano-5a,5b,8,8,11a-pentamethyl-9-oxo-1-(prop-1-en-2-yl)-2,3,3a,4,5,5a,5b,6,7,7a,8,9,11a,11b,12,13,13a,13b-octadecahydro-1H-cyclopenta[a]chrysen-3a-yl)methyl 2-ethoxyacetate]",10,10,6,30,4,> 10,28,
"C=C(C)[C@@H]1CC[C@]2(C=O)CC[C@]3(C)[C@H](CC[C@@H]4[C@@]5(C)CCC(=O)C(C)(C)[C@@H]5CC[C@]43C)[C@@H]12 [Compound 66, (1R,3aS,5aR,5bR,7aR,11aR,11bR,13aR,13bR)-5a,5b,8,8,11a-pentamethyl-9-oxo-1-(prop-1-en-2-yl)icosahydro-1H-cyclopenta[a]chrysene-3a-carbaldehyde]",20,21,15,38,6,28,35,selective toxicity towards Daoy
